In assay [1] the target is His6-ERα298-554 WT (ERα ligand-binding domain) (Homo sapiens (Human), UniProt P03372). The experiment in a line: Test A: biochemical antagonist activity, LanthaScreen TR-FRET ERα coactivator assay, WT. Particulars: read-out: Antagonism WT IC50. The procedure, abridged: (§1)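 His6-ERα LBD (aa 298–554), 0.5 nM, with Tb-anti-His6 antibody, 250 nM PGC1a peptide and 3 nM (or 10 nM) estradiol in pH 7.4 potassium phosphate/DTT buffer; incubated with compound overnight at room temperature. IC50 from 4-parameter logistic fit of TR-FRET 520:495 nm ratio.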
Sequence of His6-ERα298-554 WT (ERα ligand-binding domain) (P03372 298-554): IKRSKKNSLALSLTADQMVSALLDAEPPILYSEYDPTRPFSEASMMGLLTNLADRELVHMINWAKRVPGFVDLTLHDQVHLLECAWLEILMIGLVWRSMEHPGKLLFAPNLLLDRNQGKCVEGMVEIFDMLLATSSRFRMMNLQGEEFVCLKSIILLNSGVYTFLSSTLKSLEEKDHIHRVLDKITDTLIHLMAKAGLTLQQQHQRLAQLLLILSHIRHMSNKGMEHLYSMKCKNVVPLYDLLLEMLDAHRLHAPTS

For assay [2], the target named is His6-ERα298-554 D538G mutant (ERα ligand-binding domain) (Homo sapiens (Human), UniProt P03372, D538G). The experiment in a line: Test A: biochemical antagonist activity, LanthaScreen TR-FRET ERα coactivator assay, D538G mutant. Particulars: read-out: Antagonism D538G IC50. In a few lines: as §1
Sequence of His6-ERα298-554 D538G mutant (ERα ligand-binding domain) (P03372 298-554 D538G): as the sequence (P03372 298-554) above, with D241G counted along it
On the technique in general: TR-FRET usually uses a lanthanide donor and a delayed reading to cut background.

Assay [3] addresses His6-ERα298-554 Y537S mutant (ERα ligand-binding domain) (Homo sapiens (Human), UniProt P03372, Y537S). The experiment in a line: Test A: biochemical antagonist activity, LanthaScreen TR-FRET ERα coactivator assay, Y537S mutant. Particulars: read-out: Antagonism Y537S IC50. In a few lines:
as §1

Assay [4] deals with MCF7 cells (breast tumor cells) WT. The experiment in a line: Test B: cell proliferation/viability assay (CellTiter-Glo) on MCF7 WT. It counts as cell-based. The note with it: Homo sapiens, MCF7, 168 h, 7 days of compound exposure. In a few lines:
(§2)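 Seven-day compound exposure, 9 concentrations from 3 to 0.000001 μM, in phenol red-free medium with 5% charcoal-stripped serum. ER Tyr537Ser and Asp538Gly lines derive from transfected MCF7 selected to grow without estradiol. Viability from CellTiter-Glo luminescence, background-corrected, as percent of untreated.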
Background: ATP-based viability assays read luminescence as a measure of living cells.

Assay [5] relates to MCF7 cells expressing mutant estrogen receptor Tyr 537 Ser. The experiment in a line: Test B: cell proliferation/viability assay (CellTiter-Glo) on MCF7 Tyr 537 Ser mutant. In kind it is cell-based. The note with it: Homo sapiens, MCF7, 168 h, MCF7 cells expressing ER Tyr 537 Ser mutant, 7 days of compound exposure, read-out: proliferation MCF7 Y537S IC50. The procedure, abridged:
as §2

Assay [6] relates to MCF7 cells expressing mutant estrogen receptor Asp 538 Gly. The experiment in a line: Test B: cell proliferation/viability assay (CellTiter-Glo) on MCF7 Asp 538 Gly mutant. In kind it is cell-based. The note with it: Homo sapiens, MCF7, 168 h, MCF7 cells expressing ER Asp 538 Gly mutant, 7 days of compound exposure, read-out: proliferation MCF7 D538G IC50. The procedure, abridged: as §2

The next assay deals with ERα in MCF7 cells (Homo sapiens (Human), UniProt P03372). The experiment in a line: Test C: estrogen receptor degradation activity, ERα in cell western assay in MCF7 cells. Particulars: for DC50: 4 hours post compound addition, ERα in cell western, read-out: Degradation IC50; for % Degradation at 3 μM: 4 hours, relative to fulvestrant. In kind it is cell-based. The procedure, abridged: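 In-cell western: ERα level (green) against DNA stain Syto-64 (red) by integrated intensity. MCF7 cells in hormone-depleted medium exposed 4 h to compound at 3-0.000018 μM final (1:5 series); fulvestrant 0.1 μM as positive control.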
Sequence of ERα in MCF7 cells (P03372 whole entry): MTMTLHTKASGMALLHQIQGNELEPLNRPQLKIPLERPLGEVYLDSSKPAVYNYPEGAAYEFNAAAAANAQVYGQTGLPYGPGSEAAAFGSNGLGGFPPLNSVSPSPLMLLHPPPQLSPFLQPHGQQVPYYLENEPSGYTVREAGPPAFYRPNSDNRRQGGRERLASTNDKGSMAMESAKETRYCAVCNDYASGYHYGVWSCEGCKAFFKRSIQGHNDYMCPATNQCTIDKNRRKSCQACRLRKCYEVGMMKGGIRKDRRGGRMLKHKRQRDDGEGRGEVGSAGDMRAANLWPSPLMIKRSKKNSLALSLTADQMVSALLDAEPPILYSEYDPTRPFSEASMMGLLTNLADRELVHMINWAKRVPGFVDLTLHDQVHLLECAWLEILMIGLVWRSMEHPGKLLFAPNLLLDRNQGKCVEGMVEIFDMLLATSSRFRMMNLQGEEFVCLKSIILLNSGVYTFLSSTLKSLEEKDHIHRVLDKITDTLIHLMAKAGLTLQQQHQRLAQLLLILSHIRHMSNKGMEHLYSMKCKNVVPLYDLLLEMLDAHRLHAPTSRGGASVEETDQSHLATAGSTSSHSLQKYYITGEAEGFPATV

[7] abbreviates: asterisk (*): protocol using 10 nM estradiol.

Molecules are shown by their SMILES. pIC50: −log10 of the molar value. Where two headings read alike, the source gives them in different places.

The source of these data is US11149031B2, “Substituted N-(3-fluoropropyl)-pyrrolidine compounds, processes for their preparation and therapeutic uses thereof” (SANOFI, priority 2016, dated 2021).

Sequence of His6-ERα298-554 Y537S mutant (ERα ligand-binding domain) (P03372 298-554 Y537S): as the sequence (P03372 298-554) above, with Y240S counted along it

For `Oc1ccc2c(c1)CCCC(c1ccc(OC(F)(F)F)cc1)=C2c1ccc(N[C@H]2CCN(CCCF)C2)cc1` [Example 87, 5-[4-[[(3S)-1-(3-fluoropropyl)pyrrolidin-3-yl]amino]phenyl]-6-[4-(trifluoromethoxy)phenyl]-8,9-dihydro-7H-benzo[7]annulen-2-ol], the pIC50 in assay [1] (setting [7]) is 7.64; in assay [2] (setting [7]) it was 6.25; in assay [3] (setting [7]), 6.53; in assay [4] it was 9.70; in assay [5], 8.52; in assay [6], 9.00. Also, at ERα in MCF7 cells, the DC50 came to 0.4 nM. For the same molecule, the “% Degradation at 3 μM” value at ERα in MCF7 cells was 83%.

Consider `Oc1ccc2c(c1)CCCC(c1ccc(OC(F)(F)F)cc1)=C2c1ccc(O[C@H]2CCN(CCCF)C2)nc1` [Example 253, 5-[6-[(3S)-1-(3-fluoropropyl)pyrrolidin-3-yl]oxy-3-pyridyl]-6-[4-(trifluoromethoxy)phenyl]-8,9-dihydro-7H-benzo[7]annulen-2-ol], for which the pIC50 in assay [1] (setting [7]) is 8.15; in assay [2] (setting [7]) it was 6.81; in assay [3] (setting [7]), 7.02; in assay [4], 10.00; in assay [5], 8.70; in assay [6] it was 10.00. Moreover, on ERα in MCF7 cells, the DC50 was found to be 0.2 nM. On ERα in MCF7 cells, the “% Degradation at 3 μM” value is given as 85%.

Regarding `CC1(C)CNc2ccc(C3=C(c4ccc(O[C@H]5CCN(CCCF)C5)cc4)c4ccc(O)cc4SC3)cc21` [Example 73, 3-(3,3-dimethylindolin-5-yl)-4-[4-[(3S)-1-(3-fluoropropyl)pyrrolidin-3-yl]oxyphenyl]-2H-thiochromen-7-ol], the pIC50 was 5.96 in assay [1] (setting [7]); less than 5.40 in assay [2] (setting [7]); less than 5.40 in assay [3] (setting [7]); 7.02 in assay [4]; 6.42 in assay [5]; 6.92 in assay [6]. Moreover, the DC50 on ERα in MCF7 cells was 6 nM. Further, the “% Degradation at 3 μM” value on ERα in MCF7 cells amounted to 86%.

`CCOc1ccc(C2=C(c3ccc(O[C@H]4CCN(CCCF)C4)cc3)c3ccc(O)cc3SCC2)c(C)c1` [Example 186, 4-(4-ethoxy-2-methyl-phenyl)-5-[4-[(3S)-1-(3-fluoropropyl)pyrrolidin-3-yl]oxyphenyl]-2,3-dihydro-1-benzothiepin-8-ol]: the pIC50 in assay [1] (setting [7]) was 9.00; in assay [2] (setting [7]), 7.68; in assay [3] (setting [7]) it was 7.80; in assay [4], 9.52; in assay [5] it was 8.30; in assay [6], 9.40. Besides, the DC50 on ERα in MCF7 cells worked out at 0.6 nM. Moreover, the “% Degradation at 3 μM” value on ERα in MCF7 cells is given as 85%.

Take `Oc1cc2c(cc1Cl)C(c1ccc(O[C@H]3CCN(CCCF)C3)cc1)=C(c1ccc3[nH]ccc3c1)CCO2` [Example 144, 7-chloro-5-[4-[(3S)-1-(3-fluoropropyl)pyrrolidin-3-yl]oxyphenyl]-4-(1H-indol-5-yl)-2,3-dihydro-1-benzoxepin-8-ol]: the pIC50 is 6.28 in assay [1] (protocol with 3 nM estradiol); 5.40 in assay [2] (protocol with 3 nM estradiol); 5.40 in assay [3] (protocol with 3 nM estradiol); 7.42 in assay [4]; 6.19 in assay [5]; 7.19 in assay [6]. The DC50 at ERα in MCF7 cells stood at 18 nM. In addition, the “% Degradation at 3 μM” value on ERα in MCF7 cells is 75%.

For `Oc1ccc2c(c1)SCCC(c1ccc(OC(F)(F)F)cc1F)=C2c1ccc(O[C@H]2CCN(CCCF)C2)cc1` [Example 212, 5-[4-[(3S)-1-(3-fluoropropyl)pyrrolidin-3-yl]oxyphenyl]-4-[2-fluoro-4-(trifluoromethoxy)phenyl]-2,3-dihydro-1-benzothiepin-8-ol], the pIC50 is 7.47 in assay [1] (setting [7]); 6.10 in assay [2] (setting [7]); 6.39 in assay [3] (setting [7]); 9.40 in assay [4]; 8.52 in assay [5]; 9.30 in assay [6]. For the same molecule, on ERα in MCF7 cells, the DC50 is 2 nM. Further, at ERα in MCF7 cells, the “% Degradation at 3 μM” value came to 90%.
